These results are taken from patent US9422239B1, “Dual PPAR-δ PPAR-γ agonists” (Auburn University, priority 2013, dated 2016).

Where only a bound is given, the exact number is not on record here.

The target in one series is T1, PPARγ (AP2-PPRE) (Homo sapiens, UniProt P37231).
T1 construct: expressed in transfected cells; host or cells: HEK-293
T1 sequence (P37231 1-505): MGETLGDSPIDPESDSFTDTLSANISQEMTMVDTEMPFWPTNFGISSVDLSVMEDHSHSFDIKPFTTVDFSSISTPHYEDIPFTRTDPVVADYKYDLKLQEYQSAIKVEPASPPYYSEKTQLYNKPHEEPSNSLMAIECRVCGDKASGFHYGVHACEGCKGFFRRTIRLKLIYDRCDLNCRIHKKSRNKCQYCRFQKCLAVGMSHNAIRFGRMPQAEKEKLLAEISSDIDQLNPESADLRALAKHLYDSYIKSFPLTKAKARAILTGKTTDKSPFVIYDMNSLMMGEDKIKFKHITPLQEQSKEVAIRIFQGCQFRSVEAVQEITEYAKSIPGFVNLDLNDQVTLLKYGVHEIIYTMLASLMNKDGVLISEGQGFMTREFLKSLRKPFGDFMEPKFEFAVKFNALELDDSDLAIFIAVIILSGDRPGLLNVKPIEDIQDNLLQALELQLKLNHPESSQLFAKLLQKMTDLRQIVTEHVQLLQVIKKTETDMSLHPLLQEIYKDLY
T1 sequence (P19793 1-462 partner): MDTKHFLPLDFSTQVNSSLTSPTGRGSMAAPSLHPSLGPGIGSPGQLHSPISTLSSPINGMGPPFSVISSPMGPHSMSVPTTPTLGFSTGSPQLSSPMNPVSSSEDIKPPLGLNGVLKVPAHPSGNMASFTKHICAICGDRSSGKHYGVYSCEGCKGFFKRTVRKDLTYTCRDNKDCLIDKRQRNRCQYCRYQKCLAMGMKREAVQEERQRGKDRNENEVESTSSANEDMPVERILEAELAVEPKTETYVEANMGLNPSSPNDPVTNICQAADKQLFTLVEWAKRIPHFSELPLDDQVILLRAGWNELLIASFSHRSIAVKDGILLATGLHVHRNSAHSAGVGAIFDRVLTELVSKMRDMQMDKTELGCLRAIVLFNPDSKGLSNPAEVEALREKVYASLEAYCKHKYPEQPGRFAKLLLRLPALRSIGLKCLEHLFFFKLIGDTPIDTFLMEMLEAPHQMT
Description: AP2-PPRE luciferase assay in HEK-293 cells. The settings on record: luciferase assay, HEK-293 cells, 10 μM. The series is classed as cell-based. From the text:
(§1) To validate the specificity of the novel compounds towards activation of PPARγ/δ targets, we tested the compounds capacity to bind to select PPARγ/δ Peroxisome Proliferator Response Elements (PPRE). The PPRE are unique sites located in the promoter region where PPARs bind and transcriptionally activate the target genes. AP2-PPRE is the PPARγ target involved in adipocyte growth and differentiation. PDK4-PPRE is a PPARδ target involved in regulating energy metabolism in the cell. These PPREs were inserted into a PGL3 luciferase vectors containing CMV promoters (ADDGENE) using PCR. These vectors were co-transfected with RXR, PPARγ/PPARδ and p-galactosidase vectors into HEK-293 cells using Lipofectamine 2000 (Invitrogen). Relative light units (RLU) were measured using a Glomax Luminometer (Promega). Data were standardized to p-galactosidase activity using ONPG (Promega).

For the next series, the system named is 3T3-L1 adipocytes. Description: Lipid accumulation by oil red-o staining. The series is classed as cell-based. To be noted: 6 days, oil red-o stain. The method, then:
3T3L1 adipocytes were cultured and treated with the novel compounds for a period of 6 days. Lipid accumulation was determined by oil red-o staining, and measured the absorbance spectrophotometrically at a wavelength of 510 nm and standardized to total protein concentrations. Data from lipid accumulation studies were compared to cells treated with rosiglitazone (a full PPARγ agonist).

A further series has as its target T2, PPARδ (PDK4-PPRE) (Homo sapiens, UniProt Q03181).
T2 construct: expressed in transfected cells; host or cells: HEK-293
T2 sequence (Q03181 1-441): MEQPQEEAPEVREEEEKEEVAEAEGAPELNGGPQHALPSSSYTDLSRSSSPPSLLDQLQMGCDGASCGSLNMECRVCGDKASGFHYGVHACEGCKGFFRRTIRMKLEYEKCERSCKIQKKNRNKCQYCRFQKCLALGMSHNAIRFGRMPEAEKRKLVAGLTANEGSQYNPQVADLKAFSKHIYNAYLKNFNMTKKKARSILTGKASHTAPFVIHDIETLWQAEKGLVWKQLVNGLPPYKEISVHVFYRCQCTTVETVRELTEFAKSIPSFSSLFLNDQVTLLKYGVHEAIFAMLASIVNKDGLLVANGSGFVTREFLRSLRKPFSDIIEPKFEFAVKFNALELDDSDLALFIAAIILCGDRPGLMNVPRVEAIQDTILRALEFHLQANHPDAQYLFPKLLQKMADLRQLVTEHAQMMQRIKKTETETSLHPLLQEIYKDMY
T2 sequence (P19793 1-462 partner): T1 sequence (P19793 1-462 partner)
Nature of the series: PDK4-PPRE luciferase assay in HEK-293 cells. The series is classed as cell-based.
Excerpt: as §1

The subject of series [1] is C2C12 skeletal muscle cells. Nature of the series: Mitochondrial biogenesis markers by quantitative RT-PCR. The series is classed as cell-based. The settings on record: 4 days. Here is the method: Therefore, to test the effects of the novel compounds on mitochondrial biogenesis, C2C12 skeletal muscle cells were cultured and treated with the novel compounds for 4 days. Changes associated with markers for mitochondrial biogenesis were determined by quantitative real time PCR.

The next series relates to db/db mice. Nature of the series: Hippocampal slice electrophysiology (LTP, PTP). The series is classed as in vivo.
The conditions of series [2]: in vivo; cited from earlier work.
The nature of series [3]: Heart size (heart weight to body weight ratio). It counts as in vivo. To be noted: 10 mg/kg oral daily for 1 month, wild type and db/db mice. The method, then:
Diabetic db/db mice were fed a normal rodent chow diet. […] Mice were then weighed and their hearts were extracted and weighed. The heart weight of the mice compared to the body weight of the mice was then calculated based upon heart weight to body weight ratio.

Series [4] in a line: Biodistribution by LC-Mass Spectral analysis. The settings on record: mice, 3 mg/kg (table); for concentration at 4 h: mouse, po, 3 mg/kg.

With `CCOC(CNCc1ccc(C(F)(F)F)cc1)OCC` [Compound 3-121], the “Binding affinity for the AP2-PPRE” value at PPARγ (AP2-PPRE) is reported as “less binding affinity”. Moreover, the Lipid accumulation result in the series with 3T3-L1 adipocytes is on record as “less lipid accumulation”; in the series with 3T3-L1 adipocytes (listed as compound 3-121), “insignificant induction of adiposity”. Moreover, the “Binding affinity for the PDK4-PPRE” value on PPARδ (PDK4-PPRE) is on record as “less binding affinity”.
Regarding `Cc1cc(SCc2sc(-c3ccc(C(F)(F)F)c(F)c3)nc2C)ccc1OCC(=O)O` [GW0742, reference compound], in series [1], the “Gene expression of mitochondrial markers” value is given as “increases”.
With `CC(C(=O)O)c1ccc(CNCc2ccc(Cl)c(Cl)c2)cc1` (stereo not shown) [Compound 4-23], the Lipid accumulation result with 3T3-L1 adipocytes was “less lipid accumulation”.
Take `COc1ccc(CN(CCN2C(=O)c3ccccc3C2=O)S(=O)(=O)c2c(C)cc(C)cc2C)cc1` [Compound 3-91]: the “Binding affinity for the AP2-PPRE” value at PPARγ (AP2-PPRE) is “strong binding affinity”. Also, the Lipid accumulation entry in the series on 3T3-L1 adipocytes was “comparable to rosiglitazone”. Also, the “Binding affinity for the PDK4-PPRE” value on PPARδ (PDK4-PPRE) is given as “less binding affinity”.
Regarding `CN(CCOc1ccc(CC2SC(=O)NC2=O)cc1)c1ccccn1` (stereo not shown) [Rosiglitazone, rosiglitazone, reference compound], the “Amelioration of LTP reduction” value in the series on db/db mice (ICV) is more than 50%. Also, the “Change in the slope of fEPSP after sixty minutes of induction of LTP” value in the series on db/db mice (ICV) worked out at 148.33±2.5%. Further, the “fEPSP slope (LTP studies)” value in the series with db/db mice (oral) came to 126±5.3%. Besides, in series [2], the Half-life was 4 h. Further, the Heart size result in series [3] is “increase in heart size”. In series [4] (Brain, oral, 4 hours), the Concentration result was “Not Detected”. Also, the concentration at 4 h turned out to be 13 ng/mL in series [4] (adipose, Concentration); 5 ng/mL in series [4] (adipose, Tissue Concentration); 2.24 ng/mL in series [4] (adipose, Tissue Distribution); 247 ng/mL in series [4] (blood, Concentration); 12.8 ng/mL in series [4] (heart, Concentration); 2.12 ng/mL in series [4] (heart, Tissue Concentration). The concentration at 4 h in series [4] (heart, Tissue Distribution) stood at 0.64 ng/mL; in series [4] (liver, Concentration), 250 ng/mL; in series [4] (liver, Tissue Concentration), 8.89 ng/mL; in series [4] (liver, Tissue Distribution) it was 4.95 ng/mL.
